≈ marks a conversion by molar mass, not a printed value.
Legend:
alpha 2B-AR = biological target: T1, alpha 2B-AR (Homo sapiens, UniProt P18089); test: Intrinsic activity assay, antagonist mode, cells with stable expression of the α2B-adrenoceptor; type: cell-based; conditions: antagonist potency, read-out: Antagonist mode (IC50 ± SEM)
T1 sequence (P18089 1-450): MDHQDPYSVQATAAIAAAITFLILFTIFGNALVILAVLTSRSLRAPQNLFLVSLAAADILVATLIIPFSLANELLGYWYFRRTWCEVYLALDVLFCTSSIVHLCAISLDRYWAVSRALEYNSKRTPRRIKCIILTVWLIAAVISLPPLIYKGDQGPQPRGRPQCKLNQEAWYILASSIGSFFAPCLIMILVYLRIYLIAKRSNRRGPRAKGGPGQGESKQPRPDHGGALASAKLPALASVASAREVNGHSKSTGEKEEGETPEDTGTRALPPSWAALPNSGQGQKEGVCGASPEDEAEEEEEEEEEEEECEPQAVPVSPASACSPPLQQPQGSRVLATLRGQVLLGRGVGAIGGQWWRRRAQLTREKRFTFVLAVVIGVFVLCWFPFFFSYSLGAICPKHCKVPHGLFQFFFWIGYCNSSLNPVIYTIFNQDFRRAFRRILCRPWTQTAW
Description: An intrinsic activity assay was performed according to the instructions of the manufacturer of the assay kit containing ready-to-use cells with stable expression of the α2A-adrenoceptor (In-vitrogen, Life Technologies, Carlsbad, CA, USA) or α2B-adrenoceptor (PerkinElmer, Inc, Waltham, MA, USA).
Considering that a potent blockade of alpha 2B-ARs is required for the antiplatelet effect[8] ^, [9] we began an assessment of a pharmacological profile of all the synthesized molecules (3–11) with the evaluation of their alpha 2B-ARs antagonistic properties.

alpha 1-ARs = test: Radioligand binding assay, displacement of [3H]prazosin on rat cerebral cortex; conditions: read-out: Affinity for alpha 1-ARs Ki ± SD
Description: The affinity of the obtained compounds was evaluated by radioligand binding assays (the ability to displace [3H] prazosin and [3H]clonidine from a1- and a2-AR, respectively) on rat cerebral cortex. The brains are homogenised in 20 volumes of an ice-cold 50 mM Tris–HCl buffer (pH 7.6) and is centrifuged at 20,000 g for 20 min (0–4 °C). The cell pellet is resus-pended in the Tris–HCl buffer and centrifuged again. Radioligand binding assays are performed in plates (MultiScreen/Millipore). The final incubation mixture (final volume 300 μL) consisted of 240 µl of the membrane suspension, 30 μL of [3H]prazosin (0.2 nM) or [3H]clonidine (2 nM) solution and 30 μL of the buffer containing seven to eight concentrations (1.0^−11 to 1.0^−4 M) of the tested compounds. For measuring the unspecific binding, phentolamine, 10 µM (in the case of [3H]prazosin) and clonidine, 10 μM (in the case of [3H]clonidine) are applied. The incubation is terminated by rapid filtration over glass fiber filters (Whatman GF/C) using a vacuum manifold (Millipore). The filters are then washed twice with the assay buffer and placed in scintillation vials with a liquid scintillation cocktail. Radioactivity was measured in a WALLAC 1409 DSA liquid scintillation counter. All the assays were performed in duplicate.
Subsequently, we determined the selectivity vs. alpha 1-adrenoreceptor (Table 4). The final compounds 3–11 were submitted to a radioligand binding assay, measuring the ability to displace [^3H] prazosin from alpha 1-ARs, in the rat cerebral cortex. […] On the other hand, the introduction of a hydrophobic group into meta position of the phenylpiperazine ring (3, 4, 5, 6) caused a relatively weaker decrease. […] The incorporation of a bulky substituents such as; 2,2-dimethylbenzo[d][1,3]dioxole (9), benzo[d]oxazol-2(3H)-one (10), 2H-benzo[b][1,4]oxazin-3(4H)-one (11) maintained the affinity for alpha1-ARs.

[1] = tested on: whole rat blood aggregation induced by ADP and adrenaline; test: In vitro whole blood aggregation test induced by ADP and adrenaline (Multiplate); type: cell-based; conditions: for IC50: whole rat blood, ADP and adrenaline 1.6 µM + 50 µM, read-out: B (ADP + A) IC50
Description: (§1) In vitro aggregation tests were conducted using freshly collected whole blood with Multiplate platelet function analyzer (Roche Diagnostics Polska Sp. z o.o., Warsaw, Poland), the five-channel aggregometer based on measurements of electric impedance. The Multiplate analyzer allows the duplicate measurement with dual electrode probes. Blood was drawn from carotid of rats with hirudin blood tube (Roche Diagnostic). 300 μL of hirudin anticoagulated blood was mixed with 300 μL pre-warmed isotonic saline solution containing studied compound in DMSO or DMSO (0.1% final) and pre-incubated for 3 min at 37 °C with continuous stirring. The agonists (ADPtest, COLtest, Roche Diagnostic) were diluted using isotonic sterile NaCl solution. Aggregation was induced by adding collagen (final concentration 1.6 µg/mL), or adrenaline and subthreshod concentration of ADP (final concentration 50 µM + 1.6 µM). Activated platelet function was recorded for 6 min. The Multiplate software analyzed the area under the curve of the clotting process of each measurement and calculated the mean values.
(§2) Data were presented as Mean ± SEM. Statistical comparisons were made by the analysis of variance (ANOVA) and significance of the differences between control group and treated groups was determined by Dunnet post hoc test. p < .05 was considered significant.
(§3) Based on the aforementioned results, the most interesting compounds (3, 4, 9, and 10) were selected for further studies. In order to evaluate the anti-platelet effects of the new compounds in vitro, freshly isolated rat whole blood was incubated with selected compounds (3–100 μM) or vehicle (DMSO), and the aggregation responses were evaluated with multiplate whole blood aggregometer by measuring impedance change. Platelet aggregation was induced by collagen or sub-threshold concentration of ADP and adrenaline. ARC-239 was used as a reference compound.
Combining adrenaline with the sub-threshold concentration of ADP produced a maximal aggregation response. The adrenaline-mediated amplification of ADP-stimulated aggregation was attenuated when rat blood was pre-incubated with 3, 9, 10, and ARC-239.

[2] = tested on: whole rat blood aggregation induced by collagen; test: In vitro whole blood aggregation test induced by collagen (Multiplate); type: cell-based; conditions: for anti-platelet efficacy at lower concentration: compound at 30 μM; for IC50: whole rat blood, collagen 1.6 µg/mL
Description: as §1, §2, §3

[3] = Aqueous solubility (Eurofins bioavailability panel); type: physicochemical; conditions: kinetic from dmso stock
Description: (§4) The in vitro bioavailability assays were performed by Eurofins Panlabs Inc. (St Charles, USA) according to the methods reported in publications listed below:
Solubility: Lipinski, C.A et al. (2001) Adv Drug Del Rev, 46:3–26[32],
(§5) Concerning the described above results, for the most promising compound 3, we performed early in vitro bioavailability assays, including aqueous solubility, human plasma protein binding, human liver microsomes stability, and Caco-2 permeability (Eurofins Bioavailability panel).

[4] = Protein binding (plasma, human); type: in vitro ADME; conditions: 1.0E-05 M
Description: as §4
Protein binding: Banker, M.J et al. (2003) J. Pharm. Sci., 92:967–974[33],
as §5

[5] = Metabolic stability (liver microsomes, human); type: in vitro ADME
Description: as §4
Microsomal stability: Obach, R.S et al. (1997) J Pharmacol Exp Ther, 283:[…][35].
as §5

Caco-2 permeability = type: in vitro ADME; conditions: human; Caco-2, pH 6.5/7.4; 1.0E-05 M
Description: as §4
Caco-2 permeability: Hidalgo, I.J et al. (1989) Gastroenterology, 96:736–749[34],
as §5

Compound | IC50 (alpha 2B-AR) [µM] | Ki (alpha 1-ARs) [µM] | IC50 [1] [µM] | IC50 [2] [µM] | anti-platelet efficacy at lower concentration ([2]; collagen-induced) | other results
COc1cccc(N2CCN(CCN3C(=O)c4ccccc4C(C)(C)C3=O)CC2)c1 [Compound 6, 2–(2-(4–(3-Methoxyphenyl)piperazin-1-yl)ethyl)-4,4-dimethylisoquinoline-1,3(2H,4H)-dione] | > 1 | 0.0784 ± 0.0038 |  |  |  | 
CC1(C)C(=O)N(CCN2CCN(c3cccc(Cl)c3)CC2)C(=O)c2ccccc21 [Compound 4, 2–(2-(4–(3-Chlorophenyl)piperazin-1-yl)ethyl)-4,4-dimethylisoquinoline-1,3(2H,4H)-dione] | 0.251 ± 0.071 | 0.093 ± 0.002 |  | 34.5 ± 2.5 | significant anti-platelet efficacies | inhibition against ADP and adrenaline induced blood aggregation ([1]; up to 100 μM): did not exhibit any significant inhibition
CC1(C)C(=O)N(CCN2CCN(c3cccc4c3OCC(=O)N4)CC2)C(=O)c2ccccc21 [Compound 11, 4,4-Dimethyl-2–(2-(4–(3-oxo-3,4-dihydro-2H-benzo[b][1,4]oxazin-8-yl)piperazin-1-yl)ethyl)isoquinoline-1,3(2H,4H)-dione] | > 1 | 0.003 ± 0.0001 |  |  |  | 
CC1(C)C(=O)N(CCN2CCN(c3cccc(F)c3)CC2)C(=O)c2ccccc21 [Compound 3, 2–(2-(4–(3-Fluorophenyl)piperazin-1-yl)ethyl)-4,4-dimethylisoquinoline-1,3(2H,4H)-dione] | 0.061 ± 0.0254 | 0.03 ± 0.001 | 20.5 ± 7.1 | 26.9 ± 18.8 | significant anti-platelet efficacies | solubility ([3]; PBS, pH 7.4, aqueous buffer): 5.4 µM (≈ 2.14 µg/mL); solubility ([3]; fassgf or other biorelevant, simulated intestinal fluid, test concentration 2.0E-04 M): 68 µM (≈ 26.9 µg/mL); solubility ([3]; simulated gastric fluid): 151 µM (≈ 59.7 µg/mL); % Protein bound [4]: 99%; half-life at 100 nM ([5]; 1.0E-07 M): 14.1 min; microsomal CLint at 100 nM ([5]; 1.0E-07 M, read-out: Intrinsic clearance): 14 µL/min/mg; % Compound remaining ([5]; incubation time 0 minutes): 100.0%; % Compound remaining ([5]; incubation time 15 minutes): 49%; % Compound remaining ([5]; incubation time 30 minutes): 18%; % Compound remaining ([5]; incubation time 45 minutes): 8%; % Compound remaining ([5]; incubation time 60 minutes): 6%; Papp A→B at 10 µM (Caco-2 permeability): 77 nm/s; Papp B→A at 10 µM (Caco-2 permeability): 26 nm/s
CC1(C)C(=O)N(CCN2CCN(c3ncccn3)CC2)C(=O)c2ccccc21 [Compound 8, 4,4-Dimethyl-2–(2-(4-(pyrimidin-2-yl)piperazin-1-yl)ethyl)isoquinoline-1,3(2H,4H)-dione] | > 1 | 1.5 ± 0.1 |  |  |  | 
COc1ccccc1N1CCN(CCN2C(=O)c3ccccc3C(C)(C)C2=O)CC1 [ARC-239, reference compound] | 0.0084 ± 0.0032 | 0.0003 | 63.9 ± 21.3 | 20.7 ± 14.7 |  | 

Second part, led by results:

IC50 (alpha 2B-AR) [µM] | Ki (alpha 1-ARs) [µM] | IC50 [1] [µM] | IC50 [2] [µM] | Compound | anti-platelet efficacy at lower concentration ([2]; collagen-induced) | other results
0.061 ± 0.0225 | 0.0103 ± 0.0003 | 76.5 ± 5.8 |  | CC1(C)C(=O)N(CCN2CCN(c3cccc4[nH]c(=O)oc34)CC2)C(=O)c2ccccc21 [Compound 10, 4,4-Dimethyl-2–(2-(4–(2-oxo-2,3-dihydrobenzo[d]oxazol-7-yl)piperazin-1-yl)ethyl)isoquinoline-1,3(2H,4H)-dione] |  | 
0.758 ± 0.16 | 0.0817 ± 0.0055 |  |  | CC1(C)C(=O)N(CCN2CCN(c3cccc(O)c3)CC2)C(=O)c2ccccc21 [Compound 7, 2–(2-(4–(3-hydroxyphenyl)piperazin-1-yl)ethyl)-4,4-dimethylisoquinoline-1,3(2H,4H)-dione] |  | 
0.047 ± 0.0128 | 0.03 ± 0.0002 | 54.4 ± 5.4 | 27.4 ± 5.3 | CC1(C)Oc2cccc(N3CCN(CCN4C(=O)c5ccccc5C(C)(C)C4=O)CC3)c2O1 [Compound 9, 2–(2-(4–(2,2-Dimethylbenzo[d][1,3]dioxol-4-yl)piperazin-1-yl)ethyl)-4,4-dimethylisoquinoline-1,3(2H,4H)-dione] | significant anti-platelet efficacies | platelet aggregation attenuated to ([2]; collagen-induced, compound at 100 μM): 59.3%
> 1 | 0.703 ± 0.001 |  |  | CC1(C)C(=O)N(CCN2CCN(c3cccc(C(F)(F)F)c3)CC2)C(=O)c2ccccc21 [Compound 5, 4,4-Dimethyl-2–(2-(4–(3-(trifluoromethyl)phenyl)piperazin-1-yl)ethyl)isoquinoline-1,3(2H,4H)-dione] |  | 
